Molecules are shown by their SMILES. “And” between values parts separate entries of the source, which are not always exact repeats. Equal entries are not always repeated.

For assay [1], the species on record is Rattus norvegicus. Briefly: (§1) Bone calcium mobilization in rats maintained on a very low calcium diet at a dose 130 (pmol). The class given is functional, organism-based.
The species named for assay [2] is Rattus norvegicus. The experiment in a line: Bone calcium mobilization in rats maintained on a very low calcium diet at a dose 260 (pmol). The class given is functional, organism-based.
Assay [3] concerns HL-60. The experiment in a line: Ratio of average ED50 to 1-alpha,25-(OH)2D3 ED50 for differentiation assay. The class given is functional, Homo sapiens.
Assay [4] is filed under the species Rattus norvegicus. The experiment in a line: Intestinal calcium transport at dose 130 (pmol). The class given is functional.
For assay [5], the species on record is Rattus norvegicus. The experiment in a line: Intestinal calcium transport at dose 260 (pmol). The class given is functional.
Assay [6] has as its system HL-60. The experiment in a line: Ability to induce differentiation of human promyelocyte HL-60 cells into monocytes. The class given is functional. To be noted: read-out: ED50 (the source's name).
The species entered for assay [7] is Rattus norvegicus. Described as §1. The class given is functional, organism-based. This is another data set of the same source.
Assay [8] deals with T1, Vitamin D3 receptor (Sus scrofa) (UniProt A3RGC1).
T1 sequence (whole entry): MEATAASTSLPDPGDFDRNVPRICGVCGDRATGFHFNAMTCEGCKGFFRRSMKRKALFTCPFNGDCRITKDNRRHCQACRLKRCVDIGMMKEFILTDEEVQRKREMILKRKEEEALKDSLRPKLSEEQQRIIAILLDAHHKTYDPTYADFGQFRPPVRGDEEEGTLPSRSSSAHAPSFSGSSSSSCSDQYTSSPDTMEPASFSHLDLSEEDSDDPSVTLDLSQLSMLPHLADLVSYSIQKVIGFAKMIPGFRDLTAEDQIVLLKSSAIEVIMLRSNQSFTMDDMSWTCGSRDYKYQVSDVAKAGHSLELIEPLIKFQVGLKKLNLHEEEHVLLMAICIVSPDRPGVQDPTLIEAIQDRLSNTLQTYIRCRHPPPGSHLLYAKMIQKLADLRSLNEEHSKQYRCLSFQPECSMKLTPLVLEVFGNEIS
Briefly: Binding affinity for porcine intestinal Vitamin D3 receptor (VDR).

For `CC=C1[C@H](O)CC(=C/C=C2\CCC[C@]3(C)[C@@H]([C@H](C)CCCC(C)(C)O)CC[C@@H]23)C[C@H]1O` [listing 1 of 3 here], the Serum Ca2+ in assay [1] was 5.2 and 4.2; in assay [2], 4.5 and 4.4.

On to `CC=C1[C@H](O)CC(=C/C=C2\CCC[C@]3(C)[C@@H]([C@H](C)CCCC(C)(C)O)CC[C@@H]23)C[C@H]1O` [listing 2 of 3 here], for which the Activity ratio in assay [3] is 1.6. The “Ca2+ transport” value in assay [4] is reported as 5.7; in assay [5], 4.4. Also, in assay [6], the EC50 was 4 nM.

For `CCC1[C@H](O)CC(=C/C=C2\CCC[C@]3(C)[C@@H]([C@H](C)CCCC(C)(C)O)CC[C@@H]23)C[C@H]1O` (some centres undefined) [listing 1 of 3 here], in assay [3], the Activity ratio is 0.17. Further, in assay [5], the “Ca2+ transport” value amounted to 4. In assay [6], the EC50 was found to be 0.46 nM.

As for `CCC1[C@H](O)CC(=C/C=C2\CCC[C@]3(C)[C@@H]([C@@H](C)CCCC(C)(C)O)CC[C@@H]23)C[C@H]1O` (some centres undefined) [listing 1 of 3 here], the Activity ratio in assay [3] turned out to be 0.05. In addition, the EC50 in assay [6] is 0.13 nM.

Take `CCC1[C@H](O)CC(=C/C=C2\CCC[C@]3(C)[C@@H]([C@H](C)CCCC(C)(C)O)CC[C@@H]23)C[C@H]1O` (some centres undefined) [listing 2 of 3 here]: the Serum Ca2+ in assay [2] is 5 and 5.1.

As to `CC=C1[C@H](O)CC(=C/C=C2\CCC[C@]3(C)[C@@H]([C@@H](C)CCCC(C)(C)O)CC[C@@H]23)C[C@H]1O` [listing 1 of 3 here], the Activity ratio in assay [3] is reported as 0.06. The “Ca2+ transport” value in assay [4] is on record as 6.7; in assay [5], 6.6. In assay [6], the EC50 is 0.15 nM.

Regarding `CCC1[C@H](O)CC(=C/C=C2\CCC[C@]3(C)[C@@H]([C@@H](C)CCCC(C)(C)O)CC[C@@H]23)C[C@H]1O` (some centres undefined) [listing 2 of 3 here], in assay [2], the Serum Ca2+ came to 5.6.

Turning to `CCC1[C@H](O)CC(=C/C=C2\CCC[C@]3(C)[C@@H]([C@@H](C)CCCC(C)(C)O)CC[C@@H]23)C[C@H]1O` (some centres undefined) [listing 3 of 3 here], in assay [3], the Activity ratio amounted to 2.3. Moreover, the “Ca2+ transport” value in assay [5] stood at 4.1. For the same compound, the EC50 in assay [6] is 6.3 nM.

In the case of `CCC1[C@H](O)CC(=C/C=C2\CCC[C@]3(C)[C@@H]([C@H](C)CCCC(C)(C)O)CC[C@@H]23)C[C@H]1O` (some centres undefined) [listing 3 of 3 here], in assay [3], the Activity ratio is reported as 4.4. Also, the “Ca2+ transport” value in assay [5] is listed as 3.7. In addition, the EC50 in assay [6] is 12 nM.

As to `C=C1/C(=C\C=C2/CCC[C@]3(C)[C@@H]([C@H](C)CCCC(C)(C)O)CC[C@@H]23)C[C@@H](O)C[C@@H]1O` [CALCITRIOL], the Serum Ca2+ in assay [7] is 5.2 and 5.7; in assay [1] it was 5.1; in assay [2], 5.8 (2×) and 6.4 (2×). The “Ca2+ transport” value in assay [4] is 5.5 and 4.9 and 5.2; in assay [5], 6.5 and 5.9 and 6.

For `CC=C1[C@H](O)CC(=C/C=C2\CCC[C@]3(C)[C@@H]([C@H](C)CCCC(C)(C)O)CC[C@@H]23)C[C@H]1O` [listing 3 of 3 here], in assay [3], the Activity ratio came out at 0.8. Moreover, the results for the “Ca2+ transport” value in assay [4] and in assay [5] were 6.8 and 5, respectively. The EC50 in assay [6] (Homo sapiens, HL-60) came out at 2 nM.

On to `CC=C1[C@H](O)CC(=C/C=C2\CCC[C@]3(C)[C@@H]([C@@H](C)CCCC(C)(C)O)CC[C@@H]23)C[C@H]1O` [listing 2 of 3 here], for which the Serum Ca2+ in assay [1] was 12.1 and 5.1; in assay [2], 8.2 and 4.4. Further, the ED50 in assay [8] is 0.28 nM and 0.5 nM.

Regarding `CC=C1[C@H](O)CC(=C/C=C2\CCC[C@]3(C)[C@@H]([C@@H](C)CCCC(C)(C)O)CC[C@@H]23)C[C@H]1O` [listing 3 of 3 here], the Activity ratio in assay [3] came to 0.09. In addition, the “Ca2+ transport” value in assay [4] worked out at 5.8; in assay [5], 9. The EC50 in assay [6] (Homo sapiens, HL-60) was 0.22 nM.

Values taken from ChEMBL document CHEMBL1135524, “2-Ethyl and 2-ethylidene analogues of 1alpha,25-dihydroxy-19-norvitamin D(3): synthesis, conformational analysis, biological activities, and docking to the modeled rVDR ligand binding domain” (2002).
